Each structure is given as a SMILES string.

Data on 3 compounds can be found in patent US20140134253A1, “DRY POWDER FOSFOMYCIN/TOBRAMYCIN FORMULATION FOR INHALATION” (Gilead Sciences, Inc., priority 2011, published 2014).

Series [1] deals with E. coli, Proteus spp., Salmonella spp., Shigella spp., and S. marcescens. As to conditions: cited from earlier work.
A short description of series [2]: pH of the active ingredients in solution. It counts as physicochemical. An excerpt: Although simple amino acids and peptides have been used as excipients in pulmonary delivery, they exist as zwitterions with the free amine being protonated by the carboxylic acid. Since fosfomycin disodium and tobramycin base are basic with pHs of approximately 9.7, and 11 in solution, respectively, a formulation combining fosfomycin disodium and tobramycin base would be expected to be outside of the pH range to be tolerable for administration by inhalation to the pulmonary system. However, with the addition of NAL, the pH range in the lung upon administration of the dry powder formulation of the present invention is between about 7 to about 8, and preferably, from about 7.1 to about 7.7. Without the addition of NAL, a dry powder formulation combining fosfomycin disodium and tobramycin in the same molar ratios would be expected to produce a pH in the lung of about 8.2 (when the pH of tobramycin is adjusted with 2.5 molar equivalent of sulfuric acid) and a pH of about 9.1 (without pH adjustment with sulfuric acid).

The conditions of series [3]: cited from earlier work.
For series [4] the following is noted: aerosol administration; cited from earlier work.

`C[C@@H]1O[C@@H]1P(=O)(O)O` [Fosfomycin]: the “fosfomycin concentration at which organisms are generally inhibited” value in series [1] was not above 64 µg/mL.

Take `C[C@@H]1O[C@@H]1P(=O)(O)O` [fosfomycin disodium]: the pH in solution entry in series [2] is recorded as “approximately 9.7”.

Compound `NC[C@H]1O[C@H](O[C@H]2[C@H](O)[C@@H](O[C@H]3O[C@H](CO)[C@@H](O)[C@H](N)[C@H]3O)[C@H](N)C[C@@H]2N)[C@H](N)C[C@@H]1O` [tobramycin, Tobramycin] came in with a pH in solution in series [2] of approximately 11. For the same compound, in series [3] (in vivo, po), the oral absorption entry was “poorly absorbed orally”. For the same compound, the plasma half-life in series [3] (parenteral administration, excreted by glomerular filtration) was 1 to 2 h. For the same compound, the sputum levels in series [4] is not below 1000 µg/mL.
